# Data as given in patent US20180353445A1, “METHODS AND COMPOSITIONS RELATING TO PROTEASOME INHIBITOR RESISTANCE” (Whitehead Institute for Biomedical Research, priority 2017, published 2018).
# “Also recorded” adds a separate entry of the source.
# Assays:
# [1] = molecular target: T1, FDX1 (Homo sapiens, UniProt P10109); assay: NMR titration of elesclomol against [U-15N]-FDX1 (2D 1H,15N TROSY-HSQC); assay type: binding
# T1 construct: made in house
# T1 sequence (P10109 62-184): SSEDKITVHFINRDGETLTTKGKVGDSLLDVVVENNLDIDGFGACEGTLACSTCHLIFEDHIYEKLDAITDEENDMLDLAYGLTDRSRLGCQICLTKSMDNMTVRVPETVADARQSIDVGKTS
# Procedure: Most of these residues map to the α2, α3 helices and the β5 strand within the FDX1 structure (FIG. 53E).
# NMR Spectroscopy—NMR spectra were collected at the National Magnetic Resonance Facility at Madison on a 750 MHz (^1H) Balker with a z-gradient cryogenic probe. The buffer used for NMR samples (HNT buffer) contained 20 mM HEPES at pH 7.6, 150 mM NaCl, and 2 mM TCEP. All sample temperatures were regulated at 25° C. NMRPipe software (Delaglio et al., 1995) was used to process the raw NMR data and NMRFAM-SPARKY (Lee et al., 2015) software was utilized to visualize and analyze the processed NMR data.
# To study the interactions of FDX1 with elesclomol, 0.2 mM [U-^15N]-FDX1 in HNT buffer were placed in 5 mm Shigemi NMR tubes, and 2D ^1H,^15N TROSY-HSQC spectra were collected before and after titration of 5 equivalent molar ratio of elesclomol dissolved in HNT buffer.
# Chemical shift perturbations (ΔδHN absolute value ppm) were calculated by
# where Δ67 H and ΔδN are the chemical shift changes in the ^1H and ^15N dimensions, respectively.
# [2] = molecular target: T2, FDX2 (Homo sapiens, UniProt Q6P4F2); assay: In vitro Fe-S cluster assembly assay with reduced FDX2; assay type: biochemical; details: reduced FDX2 substituted for reduced FDX1
# T2 construct: made in house
# T2 sequence (Q6P4F2 53-183): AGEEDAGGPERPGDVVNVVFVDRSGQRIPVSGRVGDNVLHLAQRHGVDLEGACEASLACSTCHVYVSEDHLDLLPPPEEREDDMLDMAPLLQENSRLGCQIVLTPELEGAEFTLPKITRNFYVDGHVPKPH
# From the text: Fe—S clusters are generated from sulfur extracted from cysteine by the iron sulfur-cluster (ISC) core complex (NFS1-ISD11-Acp-ISCU)2 and iron. A reductant (FDX1 or FDX2) is required for Fc-S cluster biosynthesis (Lill and Muhlenhoff, 2006; Py and Barras, 2010) (FIG. 53A). To investigate the effect of elesclomol on mitochondrial Fe—S cluster biosynthesis, we utilized in vitro Fe—S cluster assembly assays. […] As further confirmation, we examined the effect of elesclomol on electron transfer from reduced FDX1 to the ISC core complex upon the addition of cysteine.
# (§1) Protein Expression and Purification—Unlabeled samples of ISCU, unlabeled (NFS1-ISD11-Acp)2 (abbreviated as SDA), unlabeled and [U-^15N]-FDX1 (truncated first 61 amino acids) and unlabeled FDX2 were produced and purified as described previously (Cai et al., 2013; Cai et al., 2017a; Cai et al., 20176). FDX1 and FDX2 were reduced by adding a 10-fold excess of sodium dithionite to oxidized FDX1 or FDX2 in an anaerobic chamber (Coy Laboratory). The reduction of FDX1 or FDX2 was monitored by the color change from dark brown to light pink and by recording IN/vis spectra before and after reduction. […]
# (§2) In vitro Fe—S cluster assembly assay—The in vitro Fe—S cluster assembly assays were carried out as follows. […] The growth of absorbance at 456 nm was used to monitor the assembly of [2Fe-2S] clusters.
# [3] = tested on: T47D cells; assay: Elesclomol combined with proteasome inhibitors, control and PSMD2 KD (Lo19S) T47D cells, CellTiter-Glo; assay type: cell-based, human
# Procedure: FIGS. 38A-38D: Elesclomol synergizes with proteasome inhibitors. Validation of drug screen results. Control and PSMD2 knockdown cells were exposed to the indicated concentrations of either ixazomib (FIG. 38A) or elesclomol (FIG. 38B). Control (FIG. 38C) or PSMD2 KD (FIG. 38D) cells were treated with increasing concentrations of ixa.zomib in the presence or absence of the indicated concentrations of elesclomol. Cell viability was examined 72 hours after drug application using CellTiter-Glo.
# (FIG. 39B) Cells with the 19S PSMD2 subunit KD were treated with indicated concentration of ixazomib or with indicated concentrations of ixazomib with 4:1 ratio of ixazomib to elesclomol (i,e, the concentration of elesclomol is 4× smaller than the indicated concentration of ixazomib). (FIG. 39C) The experiment described in (FIGS. 39A-39B).
# FIGS. 50A-50D: Elesclomol targets the Lo19S state to block proteasome inhibitor resistance. […] The relative viability of the Lo19S versus control cells was calculated for replica experiments and the log2 of the ratio is plotted. […] The relative viability of the respiring cells (Hi-OXPHOS) (gal) versus the control cells (glu) was calculated for replica experiments and the log2 of the ratio is plotted. Specific compounds are annotated. […] Plotted are the mean±−SD of at least three replicas and the calculated EC50s. […]
# [4] = molecular target: T1, FDX1; assay: In vitro Fe-S cluster assembly assay with reduced FDX1; assay type: biochemical; details: reduced FDX1 as reductant; 5x and 10x stoichiometry relative to ISCU and FDX1
# From the text: Whether elesclomol can inhibit the functional activity of FDX1 in mediating the Fe—S cluster formation was also examined. […] (FIG. 47A) A “x5 concentration” as shown in FIGS. 47A-47C means that elesclomol (or isoform) was present at 5 times the concentration of the enzyme. The assay used in FIGS. 47A-47C is described in the paper Cai et al., Biochemistry, 2017, 56 (3), pp 487-499.
# Fe—S clusters are generated from sulfur extracted from cysteine by the iron sulfur-cluster (ISC) core complex (NFS1-ISD11-Acp-ISCU)2 and iron. A reductant (FDX1 or FDX2) is required for Fc-S cluster biosynthesis (Lill and Muhlenhoff, 2006; Py and Barras, 2010) (FIG. 53A). […]
# as §1, with “FDX1 and FDX2 were reduced by adding a 10-fold excess of sodium dithionite to oxidized FDX1 or FDX2 in an anaerobic chamber (Coy Laboratory).” left out
# as §2
smiles,measurement,setting,value
CN(NC(=O)CC(=O)NN(C)C(=S)c1ccccc1)C(=S)c1ccccc1 [elesclomol],binding to FDX1 by NMR,"[1]; 0.2 mM [U-15N]-FDX1, 5 equivalent molar ratio of elesclomol",directly binds FDX1
same,chemical shift perturbation (Δδ) of the most affected FDX residues,"[1]; I58-F59, D61, K66, D68, A69, D72-D76, L84, T104-R106",> 0.01 ppm
same,inhibition of in vitro Fe-S cluster assembly,[2],almost complete loss of inhibition
same,combination effect with proteasome inhibitors,[3],synergizes
same,inhibition of in vitro Fe-S cluster assembly,[4],sufficient to induce an inhibitory effect; also recorded: progressively inhibited
